Laboratory results as given in patent US9340497B2, “Method for the preparation of (3S,3S′) 4,4′-disulfanediylbis (3-aminobutane 1-sulfonic acid)” (QUANTUM GENOMICS, priority 2010, dated 2016).

What was measured:
[1] = as described by Bodineau et al. in Hypertension 2008 51, 1318-1325; cited from earlier work
[2] = Thermal stability of the product of each step (Table 1); assay type: physicochemical; conditions: product of step (e) of the preferred method; cell text split over r17-r19: No decomposition observed
Description: Table 1 provides the reaction enthalpies, the purities (determined by HPLC and expressed as molar percentages) and the stabilities of the products of each step for this preferred method.

[3] = Stability of solid forms (neat, hydrates) under ambient conditions; assay type: physicochemical; conditions: ambient conditions: 15-25° C., atmospheric pressure, relative humidity above 50%; hydrate mixtures evolve to the trihydrate within a few days
Protocol: Any mixture of hydrates of compound I will evolve within a few days towards the trihydrate form in ambient conditions. Ambient conditions as used herein refer to a temperature between 15° C. and 25° C., at atmospheric pressure, and a relative humidity rate above 50%.

N[C@@H](CCS(=O)(=O)O)CSSC[C@@H](N)CCS(=O)(=O)O [Compound I, (3S,3S′) 4,4′-disulfanediylbis(3-aminobutane 1-sulfonic acid)]
melting point: 78 °C | Anti-hypertensor efficacy [1]: efficient anti-hypertensor agent | Stability: decomposition [2]: No

N[C@@H](CCS(=O)(=O)O)CSSC[C@@H](N)CCS(=O)(=O)O.O.O.O [compound I, (3H2O)]
Relative stability of solid form [3]: most stable form
